Assay in all cases: NCI anticancer screen, dose series, 48 h
Assay [1] deals with HOP-18 NSCLC.
Assay [2] has as its system SNB-78 CNS.
For assay [3], the system named is HS 578T breast.
In assay [4] the test system is DLD-1 colon.
The test system of assay [5] is KM20L2 colon.
The subject of assay [6] is DMS 273 small cell lung.
For assay [7], the system named is M19-MEL melanoma.
The test system of assay [8] is DMS 114 small cell lung.
In assay [9] the test system is T-47D breast.

The structures appear in SMILES notation. Values joined by “and” are separate entries in the source; they are usually repeats but may differ in a detail not shown here. Identical values can stand only once.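 Dose response: 5 concentrations. Exposure: 48 h. Format: 96-well plates. Endpoint: linear interpolation; highest concentration if not reached. Here, GI50 denotes the concentration required for 50% inhibition of growth. Definition used: TGI = concentration required for complete inhibition of growth.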

Consider 14 compounds from PubChem BioAssay (NCI).

On to `S=P(N1CC1)(N1CC1)N1CC1`, for which the GI50 in [1] was 41.5 µM; in assay [2], 46.1 µM; in assay [3] it was 534 µM; in assay [4] it was 33.2 µM; in [5], 30 µM; in assay [6], 2.76 µM. Also, the values for the GI50 in assay [7], in assay [8] and in assay [9] were 25.7 µM, 5.78 µM and 45.5 µM, respectively. The TGI in [1] is 640 µM; in assay [2], 960 µM; in assay [3], 913 µM and 962 µM; in assay [4], 77.2 µM and 682 µM; in [5], 62 µM and 464 µM; in [6], 37.1 µM and 290 µM. Besides, the TGI is 63 µM and 438 µM in assay [7]; 36.1 µM and 249 µM in [8]; 950 µM and 913 µM in assay [9].
Consider `CN(C)CC/[N+]([O-])=C(/c1ccccc1)C12CC3CC(CC(C3)C1)C2`, for which the TGI came to 35.6 µM in assay [1]; 41.8 µM in [2]; 32 µM in assay [4]; 24.5 µM in assay [5]; 27.2 µM in [7]; 36 µM in [8].
Turning to `CC(C)(c1ccccc1)c1ccc(OC#N)cc1`, the TGI was > 100 µM in assay [1]; > 100 µM in assay [2]; > 62.5 µM in assay [4]; > 100 µM in [5]; 30.7 µM in assay [6]; > 100 µM in assay [7]. Further, the TGI in [8] is > 53.9 µM.
In the case of `Cc1cccc(C)c1NC(=O)C(=O)Nn1c(NN)nc2ccccc2c1=O`, the TGI in assay [1], in [2], in [5], in [6], in assay [7] and in assay [8] was > 100 µM in each case.
As for `COc1ccccc1NC(=O)CC(=O)N/N=C/c1ccc(N(CCC#N)S(=O)(=O)c2ccccc2)cc1`, the TGI in [1], in assay [2], in assay [4], in assay [5], in assay [7] and in [8] was > 100 µM throughout.
For `N#CC1CCCCCCCCCCC(=O)N(CCCl)C1=O` (stereo not drawn), the TGI in assay [2], in [4], in assay [5], in assay [6], in assay [7] and in assay [8] was > 100 µM throughout.
Take `COc1cc2c(cc1OC)/C(=C\c1ccccc1N)C(=O)OC2`: the TGI in assay [1] is 26.8 µM; in [4], 29.3 µM; in assay [5], 43.4 µM; in assay [6] it was 25.5 µM; in assay [7], 39.2 µM; in assay [8] it was 34.7 µM.
`Cc1cccc(NC(=O)c2cccc([N+](=O)[O-])c2O)c1C`: the TGI in assay [1] is > 100 µM; in [2], > 100 µM; in assay [3], > 100 µM; in assay [4], > 100 µM; in assay [5] it was 83.2 µM; in [6], 97.7 µM. Besides, the TGI in [7] was 79.1 µM; in [8], > 100 µM; in assay [9], > 100 µM.
On to `O=C1C(=Cc2c(O)cc(O)cc2O)C(=O)c2ccccc21`, for which the TGI is 58.7 µM in assay [1]; 62.1 µM in [2]; > 55.2 µM in assay [4]; > 57.6 µM in assay [5]; > 100 µM in assay [6]; > 53 µM in assay [7]. In assay [8], the TGI is > 100 µM.
`Cc1cc(C)cc(NC(N)=S)c1`: the TGI in [2], in assay [4], in [5], in assay [6], in assay [7] and in assay [8] was > 100 µM each time.
In the case of `CC(=O)C1=C(O)CC2CC3c4[nH]c5ccccc5c4CCN3CC2C1` (stereo not drawn), the TGI in assay [1], in [2], in assay [4], in assay [5], in assay [6] and in [8] was > 100 µM in each case.
Regarding `O=C(c1ccccc1)c1cn(/N=C\c2ccccc2)c(=O)nc1-c1ccccc1`, the TGI in assay [1], in [2], in assay [4], in [5], in assay [7] and in [8] was > 100 µM each time.
Consider `CCCSS[C@H]1NC(=O)[C@H]1NC(=O)COc1ccccc1`, for which the TGI in assay [1] was determined as 66.7 µM; in [2] it was 60.6 µM; in [4] it was 23.2 µM; in [5], 42.4 µM; in assay [6], 31.2 µM; in [7] it was 33 µM. In assay [8], the TGI was 34.5 µM.
For the compound `C=CCC1C(=O)CC2(C)CC(=O)C(CC=C)C12C` (stereo not drawn), the TGI in assay [1], in assay [2], in assay [4], in assay [5], in [6] and in [7] was > 100 µM throughout. Further, the TGI in assay [8] was > 100 µM.
